Laboratory results: patent publication US11007167B2, “Methods of treating multiple sclerosis” (Biogen MA Inc., priority 2014, dated 2021)
“Also recorded” adds a separate entry of the source. Where a name gives a salt, the structure may show the parent alone.

Key:
JCV = settings: literature report; cited from earlier work
patient with MS = experiment: Occurrence of progressive multifocal leukoencephalopathy (PML) in treated MS patients; settings: prolonged lymphopenia
MS patients [1] = experiment: Absolute lymphocyte count (ALC) profiles in DMF-treated MS patients (Phase 2b, DEFINE, CONFIRM, ENDORSE); type: in vivo, human
Description: (§1) The Phase 2b study, DEFINE, and CONFIRM were multicenter, randomized, double-blind, placebo-controlled, parallel-group clinical trials of DMF as monotherapy for RRMS.
The Phase 2b study was 12 months in duration, including a 6-month placebo-controlled part (Part 1) and a 6-month uncontrolled safety extension part (Part 2). During Part 1, patients were randomized equally to DMF 120 mg once daily (QD), 120 mg three times daily (TID), 240 mg TID, or placebo.
(§2) DEFINE and CONFIRM were 2 years in duration. Patients were randomized equally to DMF 240 mg twice daily (BID), 240 mg TID, or matching placebo.
ENDORSE is a multicenter, parallel-group, dose-blinded extension of DEFINE/CONFIRM with up to 8 additional years of follow-up.
In the Phase 2b study, blood was collected every 4 weeks.
In DEFINE and CONFIRM, blood was collected every 4 weeks for the first 3 months and every 12 weeks thereafter, and within 1 month after study withdrawal or study completion if not continuing in the extension study.
In ENDORSE, blood was collected at baseline and every 12 weeks thereafter
ALCs were graded per Common Terminology Criteria for Adverse Events (CTCAE; Table 9).^9
Data from DEFINE and CONFIRM after subjects switched to alternative MS treatment were excluded.
Data from the 6-month uncontrolled safety extension of the Phase 2b study were included.

patients with RRMS [2] = settings: DEFINE Phase 3 study; after two years of treatment; cited from earlier work
patients with RRMS [3] = experiment: Annualized relapse rate / clinical efficacy in DEFINE and CONFIRM; type: in vivo, human; settings: DMF 240 mg BID; for Rate ratio (95% CI) for adjusted ARR for DMF versus placebo: 2 years
Description: FIGS. 4A-4B depict reduction in ARR at 2 years in DEFINE (FIG. 4A) and CONFIRM (FIG. 4B) in patients in the DMF BID group with lymphopenia (at least 1 ALC less than LLN) or without lymphopenia (all ALCs greater than or equal to LLN) compared with all patients in placebo group. ARR=annualized relapse rate; CI=confidence interval. ^aDMF is delayed-release DMF (also known as gastro-resistant DMF, and as TECFIDERA®). ^bBased on negative binomial regression, adjusted for study, baseline EDSS (≤2.0 vs >2.0), baseline age (<40 vs ≥40), region, and number of relapses in the 1 year prior to study entry.
as §1, §2

MS patients [4] = experiment: Serious infections by worst post-baseline CTC grade (Phase 2b, DEFINE, CONFIRM, ENDORSE); type: in vivo, human
Description: The Phase 2b study, […], and CONFIRM were multicenter, randomized, double-blind, placebo-controlled, parallel-group clinical trials of DMF as monotherapy for RRMS. ALCs were graded per Common Terminology Criteria for Adverse Events (CTCAE; Table 9).^9

healthy volunteer = experiment: Healthy volunteer study: aspirin prior to DMF dosing (flushing); type: in vivo, human; settings: 325 mg non-enteric coated aspirin 30 minutes prior to DMF dosing
Description: In a specific embodiment, a NSAID (e.g., aspirin) is administered concurrently, before, and/or after administration of the fumarate (e.g., DMF). […] Some subjects who experience flushing with gastrointestinal side effects may reduce the dose to 120 mg DMF BID temporarily. Within a month, the effective dose of 240 mg DMF BID or 240 mg DMF TID should be resumed.

[5] = All ALCs ≥ 500/mm^3 within the first 1 year
[6] = All ALCs ≥ 500/mm^3 within the first 6 months
[7] = All ALCs ≥ 800/mm^3 within the first 1 year
[8] = All ALCs ≥ 800/mm^3 within the first 6 months
[9] = At least 1 ALC < 500/mm^3 (row r11) within the first 1 year
[10] = At least 1 ALC < 500/mm^3 (row r12) within the first 1 year
[11] = At least 1 ALC < 500/mm^3 (row r12) within the first 6 months
[12] = percentage of the number with worst post-baseline count in that grade

## CCCCCCCCCCCCCCCCOCCCOP(=O)(O)CO[C@H](CO)Cn1ccc(N)nc1=O [CMX001, Hexadecyloxypropyl-Cidofovir]
JCV
  Effect on JCV replication: suppress JVC by inhibiting viral DNA replication

## COC(=O)/C=C/C(=O)OC [DMF, dimethyl fumarate]
Patient with MS; MS patient in clinical trial, severe
  Cases of PML: a case of PML
Patient with MS; 3.5 years duration
  Lymphocyte counts of the patient who developed PML: less than 0.5×10^9 /L
MS patients [1]; 9 patients with ALCs < 500 cells/μL for at least 6 months who discontinued or completed the study
  ALCs after discontinuation of treatment (following final dose): ALCs generally increased; also recorded: All 9 patients showed increases in ALCs; also recorded: evidence of ALC improvement
MS patients [1]; [5]
  Patients who subsequently developed ALCs < 500/mm^3 persisting ≥ 6 months at any time, %: (0.7) %
  Patients who subsequently developed ALCs < 500/mm^3 persisting ≥ 6 months at any time, n/N: 16/2409
MS patients [1]; [6]
  Patients who subsequently developed ALCs < 500/mm^3 persisting ≥ 6 months at any time, %: (1.5) %
  Patients who subsequently developed ALCs < 500/mm^3 persisting ≥ 6 months at any time, n/N: 37/2446
MS patients [1]; [7]
  Patients who subsequently developed ALCs < 500/mm^3 persisting ≥ 6 months at any time, %: (0) %
  Patients who subsequently developed ALCs < 500/mm^3 persisting ≥ 6 months at any time, n/N: 0/2050
MS patients [1]; [8]
  Patients who subsequently developed ALCs < 500/mm^3 persisting ≥ 6 months at any time, %: (0.4) %
  Patients who subsequently developed ALCs < 500/mm^3 persisting ≥ 6 months at any time, n/N: 9/2219
MS patients [1]; All ALCs ≥ LLN within the first 1 year of treatment
  Patients who subsequently developed ALCs < 500/mm^3 persisting ≥ 6 months at any time, n/N: 0/1876
MS patients [1]; All ALCs ≥ LLN within the first 6 months of treatment
  Patients who subsequently developed ALCs < 500/mm^3 persisting ≥ 6 months at any time, n/N: 3/2083
MS patients [1]; [9]
  Patients who subsequently developed ALCs < 500/mm^3 persisting ≥ 6 months at any time, %: (17) %
  Patients who subsequently developed ALCs < 500/mm^3 persisting ≥ 6 months at any time, n/N: 47/420
MS patients [1]; At least 1 ALC < 500/mm^3 (row r11) within the first 6 months
  Patients who subsequently developed ALCs < 500/mm^3 persisting ≥ 6 months at any time, %: (10) %
MS patients [1]; [10]
  Patients who subsequently developed ALCs < 500/mm^3 persisting ≥ 6 months at any time, %: (51) %
  Patients who subsequently developed ALCs < 500/mm^3 persisting ≥ 6 months at any time, n/N: 31/61
MS patients [1]; [11]
  Patients who subsequently developed ALCs < 500/mm^3 persisting ≥ 6 months at any time, %: (42) %
  Patients who subsequently developed ALCs < 500/mm^3 persisting ≥ 6 months at any time, n/N: 10/24
MS patients [1]; At least 1 ALC < 500/mm^3 within the first 6 months
  Patients who subsequently developed ALCs < 500/mm^3 persisting ≥ 6 months at any time, n/N: 38/251
MS patients [1]; Total DMF, n = 2513
  Incidence of worst post-baseline ALC CTC grade 0, %: (61) %
  Incidence of worst post-baseline ALC CTC grade 1, %: (9) %
  Incidence of worst post-baseline ALC CTC grade 2, %: (21) %
  Incidence of worst post-baseline ALC CTC grade 3 or 4, %: (7) %
MS patients [1]; among patients treated for ≥ 6 months (N=2,099)
  Patients who experienced ALCs less than 500/mm^3 persisting for greater than or equal to 6 months, %: 2.2%
MS patients [1]; during the first 6 months
  Patients in whom ALCs remained greater than or equal to LLN: 84%
MS patients [1]; during the first year
  Patients in whom ALCs remained greater than or equal to LLN: 76%
MS patients [1]; patients with ALCs < 500/mm^3 persisting ≥ 6 months
  Course of ALCs with continued therapy: generally remained less than 500/mm^3
MS patients [1]; then plateaued, remaining above LLN (910/mm^3) throughout the observation period
  Decrease of mean ALCs during the first year of treatment: approximately 30%
Patients with RRMS [2]
  Clinical relapses, disability progression, lesion number and volume compared with placebo: significantly reduced clinical relapses, accumulation of disability progression, and lesion number and volume
Patients with RRMS [3]; CONFIRM, patients with treatment-associated lymphopenia
  Rate ratio (95% CI) for adjusted ARR for DMF versus placebo: 0.525 (0.365, 0.756)
Patients with RRMS [3]; CONFIRM, patients without lymphopenia
  Rate ratio (95% CI) for adjusted ARR for DMF versus placebo: 0.599 (0.429, 0.835)
Patients with RRMS [3]; DEFINE, patients with treatment-associated lymphopenia
  Rate ratio (95% CI) for adjusted ARR for DMF versus placebo: 0.424 (0.294, 0.611)
Patients with RRMS [3]; DEFINE, patients without lymphopenia
  Rate ratio (95% CI) for adjusted ARR for DMF versus placebo: 0.509 (0.381, 0.681)
Patients with RRMS [3]; DEFINE and CONFIRM
  Reduction in ARR at 2 years versus placebo, patients with versus without lymphopenia: not substantially different
MS patients [4]; interim analysis of Phase 2b, DEFINE, CONFIRM, ENDORSE
  Association of lymphopenia with risk of infections, serious infections, opportunistic infections: not associated with an overall increased risk of infections or serious infections
MS patients [4]; [12]
  Serious infections, worst post-baseline CTC grade 0, %: (3) %
  Serious infections, worst post-baseline CTC grade 1, %: (5.5) %
  Serious infections, worst post-baseline CTC grade 2, %: (4) %
  Serious infections, worst post-baseline CTC grade 3 or 4, %: (3) %

## OC(c1cc(C(F)(F)F)nc2c(C(F)(F)F)cccc12)C1CCCCN1 (centres unmarked) [Mefloquine]
JCV
  Effect on JCV replication: block JCV replication without significant toxicity

## CC(=O)Oc1ccccc1C(=O)O [aspirin]
Healthy volunteer
  Occurrence and severity of flushing: reduce the occurrence and severity of flushing
